Where two headings read alike, the source gives them in different places.
What was measured:
[1] = molecular target: Kif5b-RET fusion protein in HEK-293 cells (Homo sapiens, UniProt P07949); test: cell-based
Experimental: The cellular potency of a compound inhibiting RET kinase was determined in HEK-293 cells expressing a Kif5b-RET fusion protein. Briefly, HEK-293 cells expressing a Kif5b-RET fusion protein were plated at 50K cells/well in 96 well poly-D-Lysine coated plates the day prior to the assay. The cells were incubated for 1 hour with test compound in DMEM (Dulbecco's Modified Eagle Medium) at a final DMSO concentration of 0.5%. […] After 1 hour the media was removed, the cells were fixed with 3.8% formaldehyde for 20 min, washed with PBS, and permeabilized for 10 min with 100% methanol. […] All antibodies were diluted in LI-COR Block containing 0.05% Tween. The plates were washed with PBS-0.05% Tween20, 100 μL PBS was added to each well, and the plates were read on a LI-COR Aerius fluorescent plate reader. The phospho-RET signal was normalized to the GAPDH signal. […] The IC50 value is the point where the curve crosses 50 POC.

[2] = molecular target: N-terminal GST tagged recombinant human RET cytoplasmic domain (aa 658-end), wild type RET kinase (Homo sapiens (Human), UniProt P07949); test: RET Enzyme Assay (HTRF KinEASE-TK), wild type RET; assay type: biochemical
Chain of N-terminal GST tagged recombinant human RET cytoplasmic domain (aa 658-end), wild type RET kinase (P07949 658-1114): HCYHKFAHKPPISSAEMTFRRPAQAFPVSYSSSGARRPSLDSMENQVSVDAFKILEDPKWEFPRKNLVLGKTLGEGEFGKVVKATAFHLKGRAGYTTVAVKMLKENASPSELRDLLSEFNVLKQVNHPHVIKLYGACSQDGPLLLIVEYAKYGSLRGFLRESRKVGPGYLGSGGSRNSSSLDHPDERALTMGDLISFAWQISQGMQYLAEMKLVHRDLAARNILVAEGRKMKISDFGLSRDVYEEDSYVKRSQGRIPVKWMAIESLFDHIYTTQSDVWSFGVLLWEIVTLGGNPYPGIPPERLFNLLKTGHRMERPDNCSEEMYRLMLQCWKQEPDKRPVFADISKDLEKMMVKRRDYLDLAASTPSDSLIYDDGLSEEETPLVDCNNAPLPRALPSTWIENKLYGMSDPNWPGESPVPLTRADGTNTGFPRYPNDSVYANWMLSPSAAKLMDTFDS

[3] = HEK-293 cells expressing Kif5b-RET, read-out: KIF5B-RET pTYR1062 Cell IC50

Chain of Kif5b-RET fusion protein in HEK-293 cells (P07949 29-1114 limits assumed): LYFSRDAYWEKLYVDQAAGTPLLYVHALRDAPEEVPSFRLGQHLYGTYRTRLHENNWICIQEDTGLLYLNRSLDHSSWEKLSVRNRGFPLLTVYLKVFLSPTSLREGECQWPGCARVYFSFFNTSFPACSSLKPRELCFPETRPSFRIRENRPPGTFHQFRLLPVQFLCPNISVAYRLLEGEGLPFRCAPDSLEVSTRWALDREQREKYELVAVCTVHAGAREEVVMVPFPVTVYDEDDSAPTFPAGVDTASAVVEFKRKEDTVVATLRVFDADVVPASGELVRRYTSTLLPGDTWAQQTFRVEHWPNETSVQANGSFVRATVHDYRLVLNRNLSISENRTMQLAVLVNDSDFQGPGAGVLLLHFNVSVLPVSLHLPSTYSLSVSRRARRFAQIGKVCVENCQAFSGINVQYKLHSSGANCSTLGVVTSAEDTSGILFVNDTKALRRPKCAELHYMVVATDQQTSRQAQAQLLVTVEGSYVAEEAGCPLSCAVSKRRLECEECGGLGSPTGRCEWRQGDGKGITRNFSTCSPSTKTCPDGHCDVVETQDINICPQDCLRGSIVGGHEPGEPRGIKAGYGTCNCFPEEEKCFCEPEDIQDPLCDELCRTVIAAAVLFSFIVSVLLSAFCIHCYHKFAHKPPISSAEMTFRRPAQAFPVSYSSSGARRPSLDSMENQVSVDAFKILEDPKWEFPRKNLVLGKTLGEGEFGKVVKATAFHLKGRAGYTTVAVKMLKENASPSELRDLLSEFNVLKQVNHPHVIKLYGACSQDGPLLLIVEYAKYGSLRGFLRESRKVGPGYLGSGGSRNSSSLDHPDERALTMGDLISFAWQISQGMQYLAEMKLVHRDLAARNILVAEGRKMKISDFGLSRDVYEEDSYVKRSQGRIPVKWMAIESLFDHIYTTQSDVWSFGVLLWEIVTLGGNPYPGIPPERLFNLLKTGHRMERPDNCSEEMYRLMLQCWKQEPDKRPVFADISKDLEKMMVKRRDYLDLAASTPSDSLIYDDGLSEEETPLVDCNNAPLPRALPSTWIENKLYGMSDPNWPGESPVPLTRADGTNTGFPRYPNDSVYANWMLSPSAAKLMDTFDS

SMILES | IC50 [1, 3] | IC50 ([2]; wild type RET, 1 mM ATP) | IC50 [2] | IC50 [1]
COc1cccc(CN2CCN(c3ccc(-c4cc(-c5cnn(C)c5)cn5ncc(C#N)c45)cn3)CC2)n1 [Example 399, 4-(6-(4-((6-methoxypyridin-2-yl)methyl)piperazin-1-yl)pyridin-3-yl)-6-(1-methyl-1H-pyrazol-4-yl)pyrazolo[1,5-a]pyridine-3-carbonitrile] | 7.7 nM | 10.8 nM | – | –
CC(C)S(=O)(=O)CCN1CCN(c2ccc(-c3cc(-c4cnn(C)c4)cn4ncc(C#N)c34)cn2)CC1 [Example 403, 4-(6-(4-(2-(isopropylsulfonyl)ethyl)piperazin-1-yl)pyridin-3-yl)-6-(1-methyl-1H-pyrazol-4-yl)pyrazolo[1,5-a]pyridine-3-carbonitrile] | 4.6 nM | 10.8 nM | – | –
COCCCN1CCN(c2ccc(-c3cc(-c4cnn(C)c4)cn4ncc(C#N)c34)cn2)CC1 [Example 405, 4-(6-(4-(3-methoxypropyl)piperazin-1-yl)pyridin-3-yl)-6-(1-methyl-1H-pyrazol-4-yl)pyrazolo[1,5-a]pyridine-3-carbonitrile] | 32.5 nM | 30.8 nM | – | –
COC(CN1CCN(c2ccc(-c3cc(-c4cnn(C)c4)cn4ncc(C#N)c34)cn2)CC1)C(C)(C)C (centres unmarked) [Example 417, 4-(6-(4-(2-methoxy-3,3-dimethylbutyl)piperazin-1-yl)pyridin-3-yl)-6-(1-methyl-1H-pyrazol-4-yl)pyrazolo[1,5-a]pyridine-3-carbonitrile] | 48.5 nM | 37.1 nM | – | –
CN(C)C(=O)C1CCN(c2ccc(-c3cc(-c4cnn(C)c4)cn4ncc(C#N)c34)cn2)CC1 [Example 562, 1-(5-(3-cyano-6-(1-methyl-1H-pyrazol-4-yl)pyrazolo[1,5-a]pyridine-4-yl)pyridine-2-yl)-N,N-dimethylpiperidine-4-carboxamide 2,2,2-trifluoroacetate] | 58.6 nM | – | 56 nM | –
Cn1cc(-c2cc(-c3ccc(N4CCC(C(=O)NOCCO)CC4)nc3)c3c(C#N)cnn3c2)cn1 [Example 566, 1-(5-(3-cyano-6-(1-methyl-1H-pyrazol-4-yl)pyrazolo[1,5-a]pyridin-4-yl)pyridin-2-yl)-N-(2-hydroxyethoxy)piperidine-4-carboxamide] | 146 nM | 9 nM | – | –
Cn1cc(-c2cc(-c3ccc(N4CCC(S(=O)(=O)O)CC4)nc3)c3c(C#N)cnn3c2)cn1 [Example 568, 1-(5-(3-cyano-6-(1-methyl-1H-pyrazol-4-yl)pyrazolo[1,5-a]pyridin-4-yl)pyridin-2-yl)piperidine-4-sulfonic acid] | 5000 nM | 6.1 nM | – | –
CC(C)OCCN1CCN(c2ccc(-c3cc(-c4cnn(C(F)F)c4)cn4ncc(C#N)c34)cn2)CC1 [Example 585, 6-(1-(difluoromethyl)-1H-pyrazol-4-yl)-4-(6-(4-(2-isopropoxyethyl)piperazin-1-yl)pyridin-3-yl)pyrazolo[1,5-a]pyridine-3-carbonitrile] | – | 13.6 nM | – | 13.2 nM
Cc1nn(C)c(C)c1-c1cc(-c2ccc(N3CCN(Cc4ccccc4)CC3)nc2)c2c(C#N)cnn2c1 [Example 613, 4-(6-(4-benzylpiperazin-1-yl)pyridin-3-yl)-6-(1,3,5-trimethyl-1H-pyrazol-4-yl)pyrazolo[1,5-a]pyridine-3-carbonitrile] | – | 122 nM | – | 361 nM
CCc1nn(CC)cc1-c1cc(-c2ccc(N3CCN(Cc4ccccc4)CC3)nc2)c2c(C#N)cnn2c1 [Example 615, 4-(6-(4-benzylpiperazin-1-yl)pyridin-3-yl)-6-(1,3-diethyl-1H-pyrazol-4-yl)pyrazolo[1,5-a]pyridine-3-carbonitrile] | – | 60 nM | – | 117 nM
Cc1nn(C(C)(C)C)cc1-c1cc(-c2ccc(N3CCN(Cc4ccccc4)CC3)nc2)c2c(C#N)cnn2c1 [Example 616, 4-(6-(4-benzylpiperazin-1-yl)pyridin-3-yl)-6-(1-(tert-butyl)-3-methyl-1H-pyrazol-4-yl)pyrazolo[1,5-a]pyridine-3-carb onitrile] | – | 60.8 nM | – | 85.2 nM
Cn1cc(-c2cc(-c3ccc(N4CCN(Cc5ccccc5)CC4)nc3)c3c(Cl)cnn3c2)cn1 [Example 647, 4-(6-(4-benzylpiperazin-1-yl)pyridine-3-yl)-3-chloro-6-(1-methyl-1H-pyrazol-4-yl)pyrazolo[1,5-a]pyridine] | 63 nM | 34.4 nM | – | –
CC(C)C(O)CN1CCN(c2ccc(-c3cc(-c4cnn(C)c4)cn4ncc(Cl)c34)cn2)CC1 (centres unmarked) [Example 648, 1-(4-(5-(3-chloro-6-(1-methyl-1H-pyrazol-4-yl)pyrazolo[1,5-a]pyridin-4-yl)pyridine-2-yl)piperazin-1-yl)-3-methylbutan-2-ol] | – | 34.1 nM | – | 183 nM
Cc1cnn2cc(-c3cnn(C)c3)cc(-c3ccc(N4CCN(Cc5ccccc5)CC4)nc3)c12 [Example 653, 4-(6-(4-benzylpiperazin-1-yl)pyridin-3-yl)-3-methyl-6-(1-methyl-1H-pyrazol-4-yl)pyrazolo[1,5-a]pyridine] | 69.4 nM | 86.9 nM | – | –
Cc1cnn2cc(-c3cnn(C)c3)cc(-c3ccc(N4CCN(Cc5ccccn5)CC4)nc3)c12 [Example 654, 3-methyl-6-(1-methyl-1H-pyrazol-4-yl)-4-(6-(4-(pyridine-2-ylmethyl)piperazin-1-yl)pyridin-3-yl)pyrazolo[1,5-a]pyridine] | 164 nM | 70.6 nM | – | –
CCc1cnn2cc(-c3cnn(C)c3)cc(-c3ccc(N4CCNCC4)nc3)c12 [Example 657, 3-ethyl-6-(1-methyl-1H-pyrazol-4-yl)-4-(6-(piperazin-1-yl)pyridin-3-yl)pyrazolo[1,5-a]pyridine] | 215 nM | 140 nM | – | –
COc1cc(C)c(CN2CCN(c3ccc(-c4cc(-c5cnn(C)c5)cn5ncc(C#N)c45)cn3)CC2)cn1 [Example 672, 4-(6-(4-((6-methoxy-4-methylpyridin-3-yl)methyl)piperazin-1-yl)pyridin-3-yl)-6-(1-methyl-1H-pyrazol-4-yl)pyrazolo[1,5-a]pyridine-3-carbonitrile] | 17.3 nM | 19.3 nM | – | –
Cn1cc(-c2cc(-c3ccc(N4CCN(Cc5ccc(OCC(F)(F)F)nc5)CC4)nc3)c3c(C#N)cnn3c2)cn1 [Example 674, 6-(1-methyl-1H-pyrazol-4-yl)-4-(6-(4-((6-(2,2,2-trifluoroethoxy)pyridin-3-yl)methyl)piperazin-1-yl)pyridin-3-yl)pyrazolo[1,5-a]pyridine-3-carbonitrile] | 74.7 nM | 42.5 nM | – | –
Cn1cc(-c2cc(-c3ccc(N4CCN(Cc5ccc(OC(F)F)nc5)CC4)nc3)c3c(C#N)cnn3c2)cn1 [Example 675, 4-(6-(4-((6-(difluoromethoxy)pyridin-3-yl)methyl)piperazin-1-yl)pyridin-3-yl)-6-(1-methyl-1H-pyrazol-4-yl)pyrazolo[1,5-a]pyridine-3-carbonitrile] | 24.1 nM | 13.6 nM | – | –
COc1ccc(CN2CCN(c3ccc(-c4cc(-c5cnn(C)c5)cn5ncc(C#N)c45)cn3)CC2)c(C)n1 [Example 678, 4-(6-(4-((6-methoxy-2-methylpyridin-3-yl)methyl)piperazin-l-yl)pyridin-3-yl)-6-(1-methyl-1H-pyrazol-4-yl)pyrazolo[1,5-a]pyridine-3-carbonitrile] | – | 15 nM | – | 16.3 nM
COc1ccc(CN2CCN(c3ccc(-c4cc(-c5cnn(C(C)C)c5)cn5ncc(C#N)c45)cn3)CC2)cn1 [Example 697, 6-(1-isopropyl-1H-pyrazol-4-yl)-4-(6-(4-((6-methoxypyridin-3-yl)methyl)piperazin-1-yl)pyridin-3-yl)pyrazolo[1,5-a]pyridine-3-carbonitrile] | – | 28.1 nM | – | 13.8 nM
COc1ccc(CN2CCN(c3ccc(-c4cc(-c5cn[nH]c5)cn5ncc(C#N)c45)cn3)CC2)cn1 [Example 698, 4-(6-(4-((6-methoxypyridin-3-yl)methyl)piperazin-1-yl)pyridin-3-yl)-6-(1H-pyrazol-4-yl)pyrazolo[1,5-a]pyridine-3-carbonitrile] | 12.4 nM | 6.7 nM | – | –
COc1cccc(CN2CCN(c3ccc(-c4cc(-c5cn[nH]c5)cn5ncc(C#N)c45)cn3)CC2)n1 [Example 699, 4-(6-(4-((6-methoxypyridin-2-yl)methyl)piperazin-1-yl)pyridin-3-yl)-6-(1H-pyrazol-4-yl)pyrazolo[1,5-a]pyridine-3-carbonitrile] | 24.3 nM | 19.4 nM | – | –
COc1ccc(CN2CCN(c3ccc(-c4cc(-c5cnn(C[C@H](C)O)c5)cn5ncc(C#N)c45)cn3)CC2)cn1 [Example 701, (S)-6-(1-(2-hydroxypropyl)-1H-pyrazol-4-yl)-4-(6-(4-((6-methoxypyridin-3-yl)methyl)piperazin-1-yl)pyridin-3-yl)pyrazolo[5-a]pyridine-3-carbonitrile] | 8 nM | 16.5 nM | – | –
COc1ccc(CN2CCN(c3ccc(-c4cc(-c5cnn(CC(C)(C)O)c5)cn5ncc(C#N)c45)cn3)CC2)cn1 [Example 702, 6-(1-(2-hydroxy-2-methylpropyl)-1H-pyrazol-4-yl)-4-(6-(4-((6-methoxypyridin-3-yl)methyl)piperazin-1-yl)pyridin-3-yl)pyrazolo[1,5-a]pyridine-3-carbonitrile] | 5.6 nM | 15.3 nM | – | –
